For series [1], the system named is Ba/F3 Bcr-Abl T315I cells. Nature of the series: Cell proliferation analysis, Ba/F3 Bcr-Abl T315I. The class given is cell-based. Here is the method:
(§1) The inhibitory effect of the example compounds on Ba/F3, Ba/F3 Bcr-Abl T315I cell activity was determined.
(§2) Materials and reagents: RPMI-1640 medium (GIBCO, Catalog No. A10491-01), fetal bovine serum (GIBCO, Catalog No. 10099141), antibiotics (Penicillin-Streptomycin), IL-3 (PeproTech), promycin; cell lines: Ba/F3, Ba/F3 Bcr-Abl T315I (Purchased from American type culture collection, ATCC), live cell detection kit […] (Promega, Catalog No. G7572), 96-well black wall transparent flat bottom cell culture plate (Corning, Catalog No. 3340).
(§3) Test method: 1. Preparation of cell plate: Ba/F3, Ba/F3 Bcr-Abl T315I cells were respectively seeded in 96-well plates, and 8 ng/ml IL-3 was added to the Ba/F3 cells, and the cell plates were placed in a carbon dioxide incubator and cultured overnight. 2. The test compounds were dissolved in DMSO, 9 compound concentrations were made with a 3.16-fold gradient dilution in triplicate. 3. Treatment of the cells with compounds: The compounds were transferred to the cell plate with a starting concentration of 10 μM. The cell plate was placed in a carbon dioxide incubator for 3 days. 4. Detection: CellTiter-Glo agent was added to the cell plate, and incubated at room temperature for 30 minutes to stabilize the luminous signal. PerkinElmer Envision multi-label analyzer was used for reading, wherein A represents […], B represents IC50 is 10-20 nM, C represents IC50 is 20-50 nM, D represents IC50 is 50-1000 nM, E represents IC50>1000 nM.

A further series has as its target ABL (Homo sapiens (Human), UniProt P00519). Nature of the series: Biochemical kinase analysis, ABL. As to the method:
(§4) Reagents and materials: ABL (ThermoFisher, Cat. No PV3585), ABL^T315I (Thermo Fisher, Cat. No. PR7429B), ATP (Sigma, Cat. No. A7699-1G), DMSO (Sigma, Cat. No. D2650), 96-well plate (Corning, Cat. No. 3365), 384-well plate (Greiner, Cat. No. 784076), buffer solution (Thermo Fisher, Cat. No. PR4876B).
(§5) Compound formulation: The test compounds were dissolved in DMSO to prepare a 20 mM stock solution. Before use, the compounds were diluted in DMSO to 0.1 mM, and diluted into 11 concentrations with a 3-fold gradient. When addition, diluentions of 4-fold final concentration were then made with buffer solution.
(§6) Kinase assay method: After preparing the buffer, the enzyme was mixed with pre-formulated and diluted compounds of different concentrations in duplicate for each concentration, and placed at room temperature for 30 minutes. The corresponding substrate and ATP were added thereto, and reacted at room temperature for 60 minutes (both a negative and a positive control were set). After the reaction, antibody was added for detection, Envision detection was carried out after 60 minutes incubation at room temperature, and data was collected. Data analysis and fitting were made according to XLfit5 software, wherein, A represents IC50≤5 nM, B represents IC50 is 5-50 nM, C represents IC50 is 50-100 nM, D represents IC50>100 nM.

The subject of a further series is Ba/F3 parental cells. Nature of the series: Cell proliferation analysis, Ba/F3 parental. The class given is cell-based. The following applies: Mus musculus, BaF3, 72 h; 8 ng/ml IL-3, 3 days, CellTiter-Glo. Here is the method: as §1, §2, §3
(ATP-based viability assays read luminescence as a measure of living cells.)

The nature of series [2]: Metabolic stability evaluation, human liver microsome assay. The format is in vitro ADME. The following applies: pH 7.4, human liver microsomes 0.5 mg/mL, compound 1 μM, 37° C. As to the method:
Microsome assay: human liver microsomes: 0.5 mg/mL, Xenotech; coenzyme (NADPH/NADH): 1 mM, Sigma Life Science; magnesium chloride: 5 mM, 100 mM phosphate buffer (pH is 7.4).
Preparation of stock solution: Powder of the example compounds and the reference compound were accurately weighed, and dissolved to 5 mM with DMSO, respectively.
Preparation of phosphate buffer (100 mM, pH7.4): Pre-formulated 150 mL 0.5 M potassium dihydrogen phosphate and 700 mL 0.5 M dipotassium hydrogen phosphate were mixed, then the pH of the mixture was adjusted to 7.4 with 0.5 M dipotassium hydrogen phosphate. Before use, 5-fold dilution was made with ultra-pure water, and magnesium chloride was added to afford phosphate buffer (100 mM), which containing 100 mM potassium phosphate, 3.3 mM magnesium chloride, and pH is 7.4.
NADPH regeneration system solution (containing 6.5 mM NADP, 16.5 mM G-6-P, 3 U/mL G-6-P D, 3.3 mM magnesium chloride) was prepared and placed on wet ice before use.
Preparation of stop solution: Acetonitrile solution containing 50 ng/mL propranolol hydrochloride and 200 ng/mL tolbutamide (internal standard). 25057.5 μL phosphate buffer (pH 7.4) was taken into a 50 mL centrifuge tube, and 812.5 μL human liver microsome was added respectively, mixed well to afford liver microsome diluention with a protein concentration of 0.625 mg/mL.
Incubation of the sample: The stock solutions of the corresponding compounds were diluted to 0.25 mM with an aqueous solution containing 70% acetonitrile as working solutions for use. 398 μL of human liver microsome diluention was taken and added to a 96-well incubation plate (N=2), respectively, and 2 μL of 0.25 mM working solutions were then added respectively, and mixed well.
Determination of metabolic stability: 300 μL of pre-chilled stop solution was added to each well of a 96-well deep well plate and the plate was placed on ice as a stop plate. The 96-well incubation plate and NADPH regeneration system were placed in a 37° C. water bath, shook at 100 rpm, and pre-incubated for 5 min. 80 μL of incubation solution was taken from each well of the incubation plate and added to the stop plate, mixed well, and 20 μL of NADPH regeneration system solution was supplemented, the resulted solution was considered as sample at 0 min. Then 80 μL of NADPH regeneration system solution was added to each well of the incubation plate to start the reaction and started timing. The reaction concentration of the corresponding compound is 1 μM, and the protein concentration is 0.5 mg/mL. 100 μL reaction solution was taken at 10, 30, 90 min of reaction, respectively, and added into stop plate, the reaction was stopped with 3 min vortex. The stop plate was centrifuged at 5000×g, 4° C. for 10 min. 100 μL of supernatant was taken to a 96-well plate where 100 μL of distilled water was added in advance, mixed well, sample analysis was carried out by LC-MS/MS.
Data analysis: LC-MS/MS system was used to detect peak area of corresponding compound and internal standard, peak area ratio of compound to internal standard was calculated. The slope was measured by plotting the natural logarithm of the remaining percentage of the compound versus time, and t1/2 and CLint were calculated according to the following formula, wherein V/M means 1/protein concentration.

A further series addresses ABL^T315I (Homo sapiens (Human), UniProt P00519, T315I). Nature of the series: Biochemical kinase analysis, ABL T315I. As to the method:
as §4, §5, §6

Bounds are passed on as bounds.

As to `Cc1ccc(NC(=O)c2ccc(CN3CCN(C)CC3)c(C(F)(F)F)c2)cc1C#Cc1cn([C@H]2CC[C@H](O)CC2)c2ncnc(N)c12` [Example 25, N-(3-((4-amino-7-((1r,4r)-4-hydroxycyclohexyl)-7H-pyrrolo[2,3-d]pyrimidin-5-yl)ethynyl)-4-methylphenyl)-4-((4-methylpiperazin-1-yl)methyl)-3-(trifluoromethyl)benzamide], the IC50 in series [1] (Mus musculus, BaF3, 72 h, 3 days, CellTiter-Glo) was 20 to 50 nM; on ABL it was at most 5 nM; with Ba/F3 parental cells, above 1000 nM; at ABL^T315I, at most 5 nM. For the same compound, in series [1] (ratio of Ba/F3 parental to Ba/F3 Bcr-Abl T315I), the “Selectivity [Ba/F3 (parental/Bcr-Abl ^T315I)]” value is 0~50. For the same compound, the microsomal CLint at 1 μM in series [2] (read-out: HLM Clint) was found to be 7.6 µL/min/mg. In addition, the half-life at 1 μM in series [2] (read-out: HLM T1/2) was 3.03 h.

As usually defined, the IC50 is the concentration needed to halve the response being measured.

The values are drawn from patent US11840535B2, “Alkynyl(hetero)aromatic compound for inhibiting protein kinase activity” (Shenzhen TargetRx, Inc., priority 2018, dated 2023).
